Entries after “also recorded” stand apart in the source; their conditions may differ. Values belong to the compound of their own block, whether it stands above or below them.
Assays:
[1] = Amiodarone study: safety, treatment-emergent adverse events; assay type: in vivo, healthy volunteers (human)
[2] = Amiodarone drug-drug interaction study: edoxaban pharmacokinetics; conditions: human, in vivo, 60 mg
[3] = Digoxin drug-drug interaction study: edoxaban pharmacokinetics
[4] = Quinidine study: safety, treatment-emergent adverse events; conditions: for Fecal occult bleeding (TEAE): printed under most frequent and under bleeding-related TEAEs
[5] = Dronedarone drug-drug interaction study: edoxaban pharmacokinetics
[6] = Tolerability across the 6 studies; assay type: in vivo, healthy subjects (human); conditions: edoxaban alone or coadministered with the 6 cardiovascular drugs
[7] = Dronedarone study: safety, treatment-emergent adverse events
[8] = Quinidine drug-drug interaction study: edoxaban pharmacokinetics
[9] = Digoxin study: safety, treatment-emergent adverse events; conditions: for Fecal occult bleeding (TEAE): printed under most frequent and under bleeding-related TEAEs
[10] = Edoxaban administered alone, pharmacokinetics across the 6 studies
[11] = Verapamil study: safety, treatment-emergent adverse events
[12] = Atorvastatin study: safety, treatment-emergent adverse events
[13] = Atorvastatin drug-drug interaction study: edoxaban pharmacokinetics; conditions: human, in vivo, 60 mg
[14] = cited from earlier work
[15] = Verapamil drug-drug interaction study: edoxaban pharmacokinetics

SMILES: CCCCc1oc2ccccc2c1C(=O)c1cc(I)c(OCCN(CC)CC)c(I)c1 [Amiodarone, amiodarone]
Contact dermatitis (TEAE) [1]: 2 (6.9%) n (%)
Diarrhea (TEAE) [1]: 0 n (%)
Fecal occult bleeding (bleeding-related TEAE) [1]: 0 n (%)
Gingival bleeding (bleeding-related TEAE) [1]: 0 n (%)
Menorrhagia (bleeding-related TEAE) [1]: 0 n (%)
Pain in extremity (TEAE) [1]: 0 n (%)
Subjects reporting ≥1 TEAE [1]: 7 (24.1 %) n (%)
Subjects reporting ≥1 treatment-related TEAE [1]: 1 (3.4 %) n (%)

AUC(0-inf) [2]: 1740 ng·h/mL
AUC(0-t) [2]: 1720 ng·h/mL
Cmax [2]: 251 ng/mL
half-life [2]: 12.2 h
AUC ([3]; human, in vivo, 60 mg): 1960 ng·h/mL
concentration at 24 h ([3]; human, in vivo, 60 mg): 24.5 ng/mL
half-life ([3]; human, in vivo, 60 mg): 9.83 h
half-life ([5]; human, in vivo, 60 mg): 10.2 h
AUC(0-inf) ([8]; human, in vivo, 60 mg): 1580 ng·h/mL
Cmax ([8]; human, in vivo, 60 mg): 223 ng/mL
Tmax ([8]; human, in vivo, 60 mg): 1.48 h
concentration at 24 h ([8]; human, in vivo, 60 mg): 11 ng/mL
half-life ([8]; human, in vivo, 60 mg): 6.43 h
AUC(0-t) ([8]; human, in vivo, 60 mg, Edoxaban AUC0–24, quinidine study, mean (SD)): 1450 ng·h/mL
AUC(0-t) ([8]; human, in vivo, 60 mg, Edoxaban AUClast, quinidine study, mean (SD)): 1440 ng·h/mL
Edoxaban AUC0–24 ([8]; quinidine study, mean (SD)): 1449.2 (328.6) ng·h/mL
Time of peak edoxaban concentrations postdose ([10]; across the studies): 1 to 3 h
AUC(0-inf) ([10]; human, in vivo, 60 mg): 1580 to 1970 ng·h/mL
Cmax ([10]; human, in vivo, 60 mg): 223 to 296 ng/mL
AUC(0-inf) [13]: 1970 ng·h/mL
Cmax [13]: 282 ng/mL
Tmax [13]: 1.02 h
concentration at 24 h [13]: 12.6 ng/mL
half-life [13]: 12 h
AUC(0-t) ([15]; human, in vivo, 60 mg): 1440 ng·h/mL
Cmax ([15]; human, in vivo, 60 mg): 226 ng/mL
Tmax ([15]; human, in vivo, 60 mg): 1.48 h
concentration at 24 h ([15]; human, in vivo, 60 mg): 11 ng/mL
half-life ([15]; human, in vivo, 60 mg): 7.43 h
SMILES: CN1CCc2nc(C(=O)N[C@@H]3C[C@@H](C(=O)N(C)C)CC[C@@H]3NC(=O)C(=O)Nc3ccc(Cl)cn3)sc2C1 [Edoxaban, edoxaban]
Blood creatinine increased (TEAE) [4]: 0 n (%)
Chest pain (TEAE) [4]: 1 (2.7 %) n (%)
Epistaxis (bleeding-related TEAE) [4]: 0 n (%)
Headache (TEAE) [4]: 0 n (%)
Hematochezia (bleeding-related TEAE) [4]: 1 (2.7 %) n (%)
Irregular menstruation (bleeding-related TEAE) [4]: 1 (2.7 %) n (%)
Menorrhagia (bleeding-related TEAE) [4]: 1 (2.7 %) n (%)
Nausea (TEAE) [4]: 0 n (%)
Subjects reporting ≥1 TEAE [4]: 5 (13.5 %) n (%)
Subjects reporting ≥1 treatment-related TEAE [4]: 3 (8.1 %) n (%)
Fecal occult bleeding (TEAE) [4]: 2 (5.4 %) n (%)
Tolerability (in words) [6]: well tolerated
Bleeding-related TEAEs [7]: 0 n (%)
Headache (TEAE) [7]: 0 n (%)
Subjects reporting ≥1 TEAE [7]: 0 n (%)
Subjects reporting ≥1 treatment-related TEAE [7]: 0 n (%)
Contact dermatitis (TEAE) [1]: 0 n (%)
Diarrhea (TEAE) [1]: 1 (3.3 %) n (%)
Fecal occult bleeding (bleeding-related TEAE) [1]: 0 n (%)
Gingival bleeding (bleeding-related TEAE) [1]: 0 n (%)
Menorrhagia (bleeding-related TEAE) [1]: 0 n (%)
Pain in extremity (TEAE) [1]: 1 (3.3 %) n (%)
Subjects reporting ≥1 TEAE [1]: 5 (16.7 %) n (%)
Dizziness (TEAE) [9]: 1 (4.2 %) n (%)
Headache (TEAE) [9]: 0 n (%)
Nausea (TEAE) [9]: 1 (4.2 %) n (%)
Subjects reporting ≥1 TEAE [9]: 19 (79.2 %) n (%)
Subjects reporting ≥1 treatment-related TEAE [9]: 1 (4.2 %) n (%)
Fecal occult bleeding (TEAE) [9]: 1 (4.2 %) n (%)
Constipation (TEAE) [11]: 1 (3.0 %) n (%)
Epistaxis (bleeding-related TEAE) [11]: 0 n (%)
Fecal occult bleeding (bleeding-related TEAE) [11]: 1 (3.0 %) n (%)
Headache (TEAE) [11]: 0 n (%)
Menorrhagia (bleeding-related TEAE) [11]: 0 n (%)
Occular hyperemia (TEAE) [11]: 0 n (%)
Subjects reporting ≥1 TEAE [11]: 4 (12.1 %) n (%)
Subjects reporting ≥1 treatment-related TEAE [11]: 1 (3.0 %) n (%)
Constipation (TEAE) [12]: 0 n (%)
Dysmenorrhea (bleeding-related TEAE) [12]: 1 (3.1%) n (%)
Fecal occult bleeding (bleeding-related TEAE) [12]: 2 (6.3%) n (%)
Nasal congestion (TEAE) [12]: 0 n (%)
Pharyngolaryngeal pain (TEAE) [12]: 0 n (%)
Subjects reporting ≥1 TEAE [12]: 4 (13.3%) n (%)
Subjects reporting ≥1 treatment-related TEAE [12]: 1 (3.3%) n (%)
Systemically absorbed drug eliminated via renal excretion [14]: approximately 50%
Mean terminal elimination half-life (t½) ([14]; healthy volunteers): 8.75 to 10.4 h
Time of peak concentrations postdose ([14]; healthy volunteers): 1 to 2 h

SMILES: C[C@H]1O[C@@H](O[C@H]2[C@@H](O)C[C@H](O[C@H]3[C@@H](O)C[C@H](O[C@H]4CC[C@@]5(C)[C@H](CC[C@@H]6[C@@H]5C[C@@H](O)[C@]5(C)[C@@H](C7=CC(=O)OC7)CC[C@]65O)C4)O[C@@H]3C)O[C@@H]2C)C[C@H](O)[C@@H]1O [Digoxin, digoxin]
Effect of coadministration on edoxaban exposure/PK (in words) ([3]; digoxin study): minimal effects; also recorded: relatively minor effects; also recorded: did not significantly affect exposure
Dizziness (TEAE) [9]: 0 n (%)
Headache (TEAE) [9]: 2 (8.3 %) n (%)
Nausea (TEAE) [9]: 1 (4.2 %) n (%)
Subjects reporting ≥1 TEAE [9]: 8 (33.3 %) n (%)
Subjects reporting ≥1 treatment-related TEAE [9]: 1 (4.2 %) n (%)
Fecal occult bleeding (TEAE) [9]: 3 (12.5 %) n (%)

SMILES: COc1ccc(CCN(C)CCCC(C#N)(c2ccc(OC)c(OC)c2)C(C)C)cc1OC (stereo not drawn) [Verapamil, verapamil]
Constipation (TEAE) [11]: 4 (12.1 %) n (%)
Epistaxis (bleeding-related TEAE) [11]: 0 n (%)
Fecal occult bleeding (bleeding-related TEAE) [11]: 0 n (%)
Headache (TEAE) [11]: 3 (9.1 %) n (%)
Menorrhagia (bleeding-related TEAE) [11]: 1 (3.0 %) n (%)
Occular hyperemia (TEAE) [11]: 1 (3.0 %) n (%)
Subjects reporting ≥1 TEAE [11]: 13 (39.4 %) n (%)
Subjects reporting ≥1 treatment-related TEAE [11]: 9 (27.2 %) n (%)
Subjects withdrawn with abnormal ECG ([11]; following verapamil monotherapy): 3 subjects
Effect of coadministration on edoxaban exposure (in words) ([15]; verapamil study): increased edoxaban exposure; also recorded: significantly increased exposure

SMILES: CC(C)c1c(C(=O)Nc2ccccc2)c(-c2ccccc2)c(-c2ccc(F)cc2)n1CC[C@@H](O)C[C@@H](O)CC(=O)O [Atorvastatin, atorvastatin]
Constipation (TEAE) [12]: 2 (6.3%) n (%)
Dysmenorrhea (bleeding-related TEAE) [12]: 0 n (%)
Fecal occult bleeding (bleeding-related TEAE) [12]: 0 n (%)
Nasal congestion (TEAE) [12]: 1 (3.1%) n (%)
Pharyngolaryngeal pain (TEAE) [12]: 1 (3.1%) n (%)
Subjects reporting ≥1 TEAE [12]: 6 (18.8%) n (%)
Subjects reporting ≥1 treatment-related TEAE [12]: 3 (9.4%) n (%)

SMILES: C=C[C@H]1C[N@@]2CC[C@H]1C[C@@H]2[C@@H](O)c1ccnc2ccc(OC)cc12 [Quinidine, quinidine]
Blood creatinine increased (TEAE) [4]: 1 (2.8 %) n (%)
Chest pain (TEAE) [4]: 0 n (%)
Epistaxis (bleeding-related TEAE) [4]: 1 (2.8 %) n (%)
Headache (TEAE) [4]: 3 (8.3 %) n (%)
Hematochezia (bleeding-related TEAE) [4]: 0 n (%)
Irregular menstruation (bleeding-related TEAE) [4]: 0 n (%)
Menorrhagia (bleeding-related TEAE) [4]: 0 n (%)
Nausea (TEAE) [4]: 2 (5.6 %) n (%)
Subjects reporting ≥1 TEAE [4]: 11 (30.6 %) n (%)
Subjects reporting ≥1 treatment-related TEAE [4]: 4 (11.1 %) n (%)
Subjects withdrawn with QTc prolongation ([4]; after quinidine dosing): 1 subject
Fecal occult bleeding (TEAE) [4]: 0 n (%)
Effect of coadministration on edoxaban exposure (in words) ([8]; quinidine study): increased edoxaban exposure; also recorded: significantly increased exposure

SMILES: CCCCc1oc2ccc(NS(C)(=O)=O)cc2c1C(=O)c1ccc(OCCCN(CCCC)CCCC)cc1 [Dronedarone, dronedarone]
Effect of coadministration on edoxaban exposure (in words) ([5]; dronedarone study): increased edoxaban exposure; also recorded: significantly increased exposure
Bleeding-related TEAEs [7]: 0 n (%)
Headache (TEAE) [7]: 0 n (%)
Subjects reporting ≥1 TEAE [7]: 4 (11.8 %) n (%)
Subjects reporting ≥1 treatment-related TEAE [7]: 1 (2.9 %) n (%)

Source: article PMC3781304 (American Journal of Cardiovascular Drugs, 2013)
